The source of these data is patent publication US8932597B2 (priority 2008, dated 2015).

In the first assay the test system is anti-M2 human monoclonal antibody Z3G1. The assay is classed as binding.
For “1462 (CETPIRNEWGLLTEVETPICTEVETPIRN; epitope peptide; MISC_FEATURE (1)..(1): C is an attachment site for a CLIP; MISC_FEATURE (10)..(10): G is an attachment site for a CLIP; MISC_FEATURE (11)..(11): L is an attachment site for a CLIP; MISC_FEATURE (29)..(29): N is an attachment site for a CLIP) [compound 1462]”, the “Signal (peptides that bind to Z3G1)” value stood at 1710.
Take “1512 (CTEVETPIRNLLTEVETPICETPIRNEWG; epitope peptide; MISC_FEATURE (1)..(1): C is an attachment site for a CLIP; MISC_FEATURE (10)..(10): N is an attachment site for a CLIP; MISC_FEATURE (11)..(11): L is an attachment site for a CLIP; MISC_FEATURE (29)..(29): G is an attachment site for a CLIP) [compound 1512]”: the “Signal (peptides that show specific binding to Z3G1)” value came out at 2645.
Consider “1295 (MSLLWEVETPIRNEWGCRCN; epitope peptide) [compound 1295]”, for which the “Signal (peptides that bind to Z3G1)” value was 2531.
Same read-out and setting: the value for “1337 (MCLLTEVGMSLCTEV; epitope peptide) [compound 1337]” was 2513; that for “1280 (MSLLDEVETPIRNEWGCRCN; epitope peptide) [compound 1280]” was 2763; that for “1333 (MSLLCEVETPIRNE; epitope peptide) [compound 1333]” was 2454.
As to “1570 (MLLTEVETPIRNEWGCRCNDSSD; epitope peptide) [compound 1570]”, the “Signal (peptides that show specific binding to Z3G1)” value came out at 2126.
Same read-out and setting: as for “1555 (SLLTCVGSLLCEV; epitope peptide) [compound 1555]”, the figure is 2264.
“1342 (MSLLTCVGMSLLCEV; epitope peptide) [compound 1342]”: the “Signal (peptides that bind to Z3G1)” value amounted to 2712.
In the case of “1395 (SLLCEVCTPIRNEWG; epitope peptide) [compound 1395]”, the “Signal (peptides that bind to Z3G1)” value is 2384.
As to “1563 (DLLTEVETPIRNEWGCRCNDSSD; epitope peptide) [compound 1563]”, the “Signal (peptides that show specific binding to Z3G1)” value is 2320.
As to “1278 (MSLYTEVETPIRNEWGCRCN; epitope peptide) [compound 1278]”, the “Signal (peptides that bind to Z3G1)” value was determined as 1313.
Take “1513 (CEVETPIRNELLTEVETPICETPIRNEWG; epitope peptide; MISC_FEATURE (1)..(1): C is an attachment site for a CLIP; MISC_FEATURE (10)..(10): E is an attachment site for a CLIP; MISC_FEATURE (11)..(11): L is an attachment site for a CLIP; MISC_FEATURE (29)..(29): G is an attachment site for a CLIP) [compound 1513]”: the “Signal (peptides that show specific binding to Z3G1)” value is 2466.
In the case of “1293 (MSLLSEVETPIRNEWGCRCN; epitope peptide) [compound 1293]”, the “Signal (peptides that bind to Z3G1)” value is recorded as 2790.
In the case of “1383 (CLLTEVECPIRNEWG; epitope peptide) [compound 1383]”, the “Signal (peptides that bind to Z3G1)” value came out at 2157.
Still for that read-out and setting: the value for “1306 (MSLLTEVLTPIRNEWGCRCN; epitope peptide) [compound 1306]” was 2714; that for “1313 (CMSLLCEVETPIRNE; epitope peptide) [compound 1313]” was 2582.
Take “1461 (CVETPIRNEWLLTEVETPICTEVETPIRN; epitope peptide; MISC_FEATURE (1)..(1): C is an attachment site for a CLIP; MISC_FEATURE (10)..(10): W is an attachment site for a CLIP; MISC_FEATURE (11)..(11): L is an attachment site for a CLIP; MISC_FEATURE (29)..(29): N is an attachment site for a CLIP) [compound 1461]”: the “Signal (peptides that bind to Z3G1)” value is 1835.
Same read-out and setting: the value for “1253 (MFLLTEVETPIRNEWGCRCN; epitope peptide) [compound 1253]” was 1707.
For the substance “1589 (SLLVEVETPIRNEWGCRCNDSSD; epitope peptide) [compound 1589]”, the “Signal (peptides that show specific binding to Z3G1)” value stood at 1932.
As to “1442 (CLTEVETPIRLLTEVETPICLTEVETPIR; epitope peptide; MISC_FEATURE (1)..(1): C is an attachment site for a CLIP; MISC_FEATURE (10)..(10): R is an attachment site for a CLIP; MISC_FEATURE (11)..(11): L is an attachment site for a CLIP; MISC_FEATURE (29)..(29): R is an attachment site for a CLIP) [compound 1442]”, the “Signal (peptides that bind to Z3G1)” value came out at 2057.
Same read-out and setting: the value for “1257 (MKLLTEVETPIRNEWGCRCN; epitope peptide) [compound 1257]” was 2629.
Regarding “1564 (ELLTEVETPIRNEWGCRCNDSSD; epitope peptide) [compound 1564]”, the “Signal (peptides that show specific binding to Z3G1)” value was 2201.
Turning to “1292 (MSLLREVETPIRNEWGCRCN; epitope peptide) [compound 1292]”, the “Signal (peptides that bind to Z3G1)” value is given as 2699.
On the same count and under the same terms, as for “1343 (CSCLCEVGMSLLCEV; epitope peptide) [compound 1343]”, the figure is 1945.
With “1551 (SLLCEVGSCLTEV; epitope peptide) [compound 1551]”, the “Signal (peptides that show specific binding to Z3G1)” value worked out at 2499.
In the case of “1290 (MSLLPEVETPIRNEWGCRCN; epitope peptide) [compound 1290]”, the “Signal (peptides that bind to Z3G1)” value amounted to 2728.
The same measure, in the same setting: the value for “1388 (SLLCEVETPIRNECG; epitope peptide) [compound 1388]” was 2107; that for “1291 (MSLLQEVETPIRNEWGCRCN; epitope peptide) [compound 1291]” was 2792; that for “1267 (MSILTEVETPIRNEWGCRCN; epitope peptide) [compound 1267]” was 2582.
Take “1262 (MQLLTEVETPIRNEWGCRCN; epitope peptide) [compound 1262]”: the “Signal (peptides that bind to Z3G1)” value is reported as 2526.
Consider “1330 (MSLLCEVECPIRNE; epitope peptide) [compound 1330]”, for which the “Signal (peptides that bind to Z3G1)” value was 2606.
Still for that read-out and setting: the value for “1374 (SLLTEVETPIRNECGC; epitope peptide) [compound 1374]” was 1660; that for “1335 (MCLLTEVGMSCLTEV; epitope peptide) [compound 1335]” was 1869.
As for “1534 (SLLCEVETPIRNEWGCRCNDSSD; epitope peptide) [compound 1534]”, the “Signal (peptides that show specific binding to Z3G1)” value is 2161.
Take “1310 (MSLLTEVWTPIRNEWGCRCN; epitope peptide) [compound 1310]”: the “Signal (peptides that bind to Z3G1)” value is reported as 2546.
On the same count and under the same terms, as for “1366 (SLLCEVECPIRNE; epitope peptide) [compound 1366]”, the figure is 2377.
With “1391 (SLLCEVETPICNEWG; epitope peptide) [compound 1391]”, the “Signal (peptides that bind to Z3G1)” value is reported as 2536.
“1331 (MSLLCEVCTPIRNE; epitope peptide) [compound 1331]”: the “Signal (peptides that bind to Z3G1)” value came out at 2601.
Take “1571 (NLLTEVETPIRNEWGCRCNDSSD; epitope peptide) [compound 1571]”: the “Signal (peptides that show specific binding to Z3G1)” value is recorded as 2135.
With “1284 (MSLLHEVETPIRNEWGCRCN; epitope peptide) [compound 1284]”, the “Signal (peptides that bind to Z3G1)” value is recorded as 2691.
Still for that read-out and setting: the value for “1364 (SLLCEVETPCRNE; epitope peptide) [compound 1364]” was 2035.
For “CSLLTEVGSLLTEV (epitope peptide) [SEQ ID NO: 283]”, the “Binding to Z3G1 (in words)” value is on record as “recognized”.
For the substance “1314 (CMSLCTEVETPIRNE; epitope peptide) [compound 1314]”, the “Signal (peptides that bind to Z3G1)” value is reported as 1705.
The same measure, in the same setting: the value for “1258 (MLLLTEVETPIRNEWGCRCN; epitope peptide) [compound 1258]” was 2091.
In the case of “1557 (CLCTCVGSLLCEV; epitope peptide) [compound 1557]”, the “Signal (peptides that show specific binding to Z3G1)” value amounted to 2246.
As for “1358 (CLLTEVECPIRNE; epitope peptide) [compound 1358]”, the “Signal (peptides that bind to Z3G1)” value is on record as 2326.
For the substance “1567 (HLLTEVETPIRNEWGCRCNDSSD; epitope peptide) [compound 1567]”, the “Signal (peptides that show specific binding to Z3G1)” value stood at 1946.
For the substance “1312 (MSLLTEVEWPIRNEWGCRCN; epitope peptide) [compound 1312]”, the “Signal (peptides that bind to Z3G1)” value is recorded as 2541.
Still for that read-out and setting: the value for “1345 (MSCLCECGMSLLCEV; epitope peptide) [compound 1345]” was 1307; that for “1276 (MSLQTEVETPIRNEWGCRCN; epitope peptide) [compound 1276]” was 2792.
For “1569 (KLLTEVETPIRNEWGCRCNDSSD; epitope peptide) [compound 1569]”, the “Signal (peptides that show specific binding to Z3G1)” value stood at 1826.
On to “1357 (CLLTEVETCIRNE; epitope peptide) [compound 1357]”, for which the “Signal (peptides that bind to Z3G1)” value is listed as 1661.
Still for that read-out and setting: the value for “1344 (MCLCTCVGMSLLCEV; epitope peptide) [compound 1344]” was 2431.
As to “1583 (SLLHEVETPIRNEWGCRCNDSSD; epitope peptide) [compound 1583]”, the “Signal (peptides that show specific binding to Z3G1)” value turned out to be 2462.
For “1260 (MNLLTEVETPIRNEWGCRCN; epitope peptide) [compound 1260]”, the “Signal (peptides that bind to Z3G1)” value is 2733.

The test system of a further assay is HuM2e antibody 23K12. The assay is classed as binding, human.
Consider “307 (SLCTEVGCLCTCV; epitope peptide) [compound 307]”, for which the “Signal (peptides that bind to 23K21 and 8I10)” value was found to be 1907.
Same read-out and setting: the value for “391 (SNLTEVETPIRNEWGCRCNDSSD; epitope peptide) [compound 391]” was 1345.
